From PMC3566858 (Beilstein Journal of Organic Chemistry, 2013)
Marks after values point to notes of the source that are not given here.

Legend:
[1] = test system: T. cruzi parasites in J774 macrophage host cells; experiment: Minimum trypanocidal concentration (MTC) assay; assay type: cell-based, Trypanosoma cruzi
[2] = test system: T. cruzi parasites in C2C12 host cells; experiment: High-content imaging-based screening (HCS) assay; assay type: cell-based; details: Trypanosoma cruzi; reduces parasite load in C2C12 cells by 90% relative to untreated controls; read-out: T. cruzi growth inhibition HCS EC90
[3] = test system: TcCYP51 (ergosterol biosynthesis) in intracellular T. cruzi parasites; experiment: Ergosterol biosynthesis / sterol composition of intracellular T. cruzi by GC/MS; assay type: cell-based, Trypanosoma cruzi; design: key to TcCYP51 cellular activity (Y/N): Y: Compound affects ergosterol biosynthesis at indicated concentration as determined by GC/MS analysis; cellular activity (Y/N, conc.); details: for effect on sterol (lipid) composition of intracellular T. cruzi: concentrations below MTC
CYP1A2 = biological target: T1, CYP1A2 (Homo sapiens, UniProt P05177); experiment: Mammalian CYP inhibition panel, 1A2; assay type: in vitro ADME
T1 sequence (P05177 1-516): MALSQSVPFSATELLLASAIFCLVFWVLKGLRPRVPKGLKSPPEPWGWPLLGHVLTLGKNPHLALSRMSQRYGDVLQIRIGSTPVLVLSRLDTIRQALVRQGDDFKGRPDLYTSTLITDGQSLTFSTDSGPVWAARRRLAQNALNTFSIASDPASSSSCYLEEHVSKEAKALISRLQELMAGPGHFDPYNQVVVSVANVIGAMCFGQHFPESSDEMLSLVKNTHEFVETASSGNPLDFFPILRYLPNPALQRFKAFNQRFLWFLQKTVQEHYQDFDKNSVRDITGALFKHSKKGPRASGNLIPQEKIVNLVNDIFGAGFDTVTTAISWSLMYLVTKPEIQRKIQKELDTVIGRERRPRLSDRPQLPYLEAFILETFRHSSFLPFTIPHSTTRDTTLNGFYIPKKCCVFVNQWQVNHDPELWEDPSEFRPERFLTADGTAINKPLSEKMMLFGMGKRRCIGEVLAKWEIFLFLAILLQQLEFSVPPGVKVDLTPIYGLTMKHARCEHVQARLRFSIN

CYP2D6 = CYP2D6 (Homo sapiens, UniProt P10635); experiment: Mammalian CYP inhibition panel, 2D6; assay type: in vitro ADME
CYP3A4 [4] = biological target: T2, CYP3A4 (Homo sapiens, UniProt P08684); experiment: Mammalian CYP inhibition panel, 3A4; assay type: in vitro ADME
[5] = biological target: T3, ≈35 kDa host-cell protein (cathepsin B) (Mus musculus, UniProt P10605); experiment: Competitive labeling of host cell (C2C12) proteins with probe 9; assay type: cell-based; details: C2C12 cells
T3 construct: endogenous in cells; host or cells: C2C12 mouse myoblasts
Protocol: The discovery of a potential mammalian off-target of probe 9 (and presumably also of 1) was of considerable interest, so we explored this finding further. To determine if this protein was also a target of 1 and 4, we conducted competition experiments in C2C12 cells. […]
Cellular labeling assay and “click” chemistry: C2C12 cells (1.5 × 10^6 cells) were pre-treated with competitor compounds in culture media (1 mL, DMEM with 10% FBS) for 1 hour at 37 °C.
Then additional competitor compound and 9 (2 µM) were added in culture media (1 mL), and the cells were incubated for an additional hour. The cells were then pelleted, washed with phosphate-buffered saline pH 7.4 (2 × 1 mL), and lysed with 1% SDS in phosphate-buffered saline (400 µL). The denatured lysates were sonicated to reduce viscosity, centrifuged to give pellets of the insoluble material, and normalized for total protein content. The normalized lysates (22 µL, 3 mg/mL) were mixed with TAMRA azide 10 (0.5 µL, 5 mM), TCEP (0.5 µL, 50 mM, pH ~7.0), TBTA ligand in 1:4 DMSO/t-butyl alcohol (1.5 µL, 1 mM), and CuSO4 (0.5 µL, 50 mM).
Reactions were incubated at room temperature for one hour and then resolved by SDS-PAGE.
The resulting gel was scanned for fluorescence (Typhoon Imaging System, Molecular Dynamics) and coomassie stained. […]

CYP2C19 [6] = biological target: T4, CYP2C19 (Homo sapiens, UniProt P33261); experiment: Mammalian CYP inhibition panel, 2C19; assay type: in vitro ADME
CYP3A4 [7] = biological target: T2, CYP3A4; experiment: CYP reversibility study (pre-incubation with or without NADPH), 3A4; assay type: in vitro ADME; details: for mechanism of CYP3A4 inhibition: NADPH-dependent shift of IC50
Protocol: Given the similar IC50 values for 1 and 4 against CYP3A4, we were curious to determine whether 4 is an irreversible inhibitor of this enzyme, as is the case for 1 [30].
(§1) CYP Inhibition and reversibility studies
(§2) Mammalian CYP inhibition values and reversibility studies were conducted by WuXi AppTech
(§3) (Tianjin, China 300457) according to standard protocols. […]

CYP2C9 = CYP2C9 (Homo sapiens, UniProt P11712); experiment: Mammalian CYP inhibition panel, 2C9; assay type: in vitro ADME
cruzain = cruzain (Trypanosoma cruzi, UniProt P25779); experiment: biochemical; details: for IC50: kinact/Ki, read-out: cruzain activity (n.a. = not active)
TcCYP51 = TcCYP51 (Trypanosoma cruzi, UniProt Q7Z1V1); experiment: biochemical; details: UV-vis binding assay; lower limit of KD ~5 nM; read-out: TcCYP51 activity in vitro KD
CYP3A4 [8] = biological target: T2, CYP3A4; design: method as in PMID 11038163; details: cited from earlier work
CYP2C19 [9] = biological target: T4, CYP2C19; experiment: CYP reversibility study (pre-incubation with or without NADPH), 2C19; assay type: in vitro ADME; details: for mechanism of CYP2C19 inhibition: NADPH-dependent shift of IC50
Protocol: as §1, §2, §3

P-glycoprotein (P-gp) = details: stated as known, no reference given; cited from earlier work
[10] = test system: CYP1A2, CYP2C9, CYP2C19, CYP2D6, CYP3A4 (average over the panel of mammalian CYP enzymes); experiment: Mammalian CYP inhibition panel, average over panel; assay type: in vitro ADME; details: human; average of 1A2, 2C9, 2C19, 2D6, 3A4; read-out: average IC50 across the CYP panel
[11] = clears J774 host cells of parasites at day 40, following 28 days of treatment
[12] = pretreatment with 10 μM for one hour
[13] = affects ergosterol biosynthesis at 2.0 μM
[14] = pre-incubation at either 1 μM or 10 μM for one hour
[15] = affects ergosterol biosynthesis at 0.1 μM

cruzain, sequence (P25779 123-337 limits assumed): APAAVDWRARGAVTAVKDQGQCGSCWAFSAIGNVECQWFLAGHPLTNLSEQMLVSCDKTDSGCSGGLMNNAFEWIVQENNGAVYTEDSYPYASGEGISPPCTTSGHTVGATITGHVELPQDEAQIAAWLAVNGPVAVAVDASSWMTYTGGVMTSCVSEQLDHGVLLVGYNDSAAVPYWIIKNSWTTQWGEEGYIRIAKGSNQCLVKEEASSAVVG
TcCYP51, sequence (Q7Z1V1 whole entry): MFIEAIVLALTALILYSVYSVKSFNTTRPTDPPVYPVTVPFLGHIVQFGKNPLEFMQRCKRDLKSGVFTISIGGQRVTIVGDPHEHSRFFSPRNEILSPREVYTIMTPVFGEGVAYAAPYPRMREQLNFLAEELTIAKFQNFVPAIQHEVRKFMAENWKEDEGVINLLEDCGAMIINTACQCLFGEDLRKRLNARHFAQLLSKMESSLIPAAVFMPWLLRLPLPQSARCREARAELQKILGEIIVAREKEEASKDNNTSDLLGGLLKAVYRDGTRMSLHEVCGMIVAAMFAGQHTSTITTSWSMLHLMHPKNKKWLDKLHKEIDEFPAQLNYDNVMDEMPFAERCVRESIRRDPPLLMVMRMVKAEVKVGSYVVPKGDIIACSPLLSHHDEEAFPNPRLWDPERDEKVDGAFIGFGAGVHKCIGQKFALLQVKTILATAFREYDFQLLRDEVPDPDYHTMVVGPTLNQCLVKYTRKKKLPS
T3 sequence (P10605 80-333 limits assumed): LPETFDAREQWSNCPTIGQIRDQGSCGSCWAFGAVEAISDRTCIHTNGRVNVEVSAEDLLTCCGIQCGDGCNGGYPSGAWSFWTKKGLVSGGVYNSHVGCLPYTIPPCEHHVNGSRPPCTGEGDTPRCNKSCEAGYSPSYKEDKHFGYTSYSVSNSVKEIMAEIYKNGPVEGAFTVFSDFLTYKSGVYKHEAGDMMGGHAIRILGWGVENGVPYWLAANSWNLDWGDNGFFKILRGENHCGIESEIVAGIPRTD
T4 sequence (P33261 whole entry): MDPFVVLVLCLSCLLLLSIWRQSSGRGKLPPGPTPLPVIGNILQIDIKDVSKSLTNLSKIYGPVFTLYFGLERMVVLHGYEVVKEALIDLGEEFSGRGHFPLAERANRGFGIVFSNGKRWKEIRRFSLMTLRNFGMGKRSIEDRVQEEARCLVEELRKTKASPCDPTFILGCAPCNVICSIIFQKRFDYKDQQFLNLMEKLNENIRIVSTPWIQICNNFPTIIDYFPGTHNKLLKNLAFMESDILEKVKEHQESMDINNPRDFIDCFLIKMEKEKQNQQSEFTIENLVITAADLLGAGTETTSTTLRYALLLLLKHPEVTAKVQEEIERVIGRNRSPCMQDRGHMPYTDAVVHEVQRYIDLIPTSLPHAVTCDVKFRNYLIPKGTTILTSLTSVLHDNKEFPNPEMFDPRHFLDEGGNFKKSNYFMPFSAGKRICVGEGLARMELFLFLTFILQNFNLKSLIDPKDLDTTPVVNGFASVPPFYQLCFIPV
T2 sequence (P08684 whole entry): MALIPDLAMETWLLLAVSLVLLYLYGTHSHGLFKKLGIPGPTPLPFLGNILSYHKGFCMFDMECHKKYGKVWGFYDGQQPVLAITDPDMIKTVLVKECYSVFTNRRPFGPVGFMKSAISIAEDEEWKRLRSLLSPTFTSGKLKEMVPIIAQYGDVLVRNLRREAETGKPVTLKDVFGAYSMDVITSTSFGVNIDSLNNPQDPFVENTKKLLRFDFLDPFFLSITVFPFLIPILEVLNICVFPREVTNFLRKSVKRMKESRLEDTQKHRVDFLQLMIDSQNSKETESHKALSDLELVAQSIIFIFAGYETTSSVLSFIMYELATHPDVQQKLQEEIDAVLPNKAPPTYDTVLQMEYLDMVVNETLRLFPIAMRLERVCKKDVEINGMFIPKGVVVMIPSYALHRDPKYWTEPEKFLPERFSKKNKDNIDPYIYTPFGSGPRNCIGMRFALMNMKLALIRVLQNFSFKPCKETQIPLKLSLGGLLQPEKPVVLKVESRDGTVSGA
CYP2D6, sequence (P10635 whole entry): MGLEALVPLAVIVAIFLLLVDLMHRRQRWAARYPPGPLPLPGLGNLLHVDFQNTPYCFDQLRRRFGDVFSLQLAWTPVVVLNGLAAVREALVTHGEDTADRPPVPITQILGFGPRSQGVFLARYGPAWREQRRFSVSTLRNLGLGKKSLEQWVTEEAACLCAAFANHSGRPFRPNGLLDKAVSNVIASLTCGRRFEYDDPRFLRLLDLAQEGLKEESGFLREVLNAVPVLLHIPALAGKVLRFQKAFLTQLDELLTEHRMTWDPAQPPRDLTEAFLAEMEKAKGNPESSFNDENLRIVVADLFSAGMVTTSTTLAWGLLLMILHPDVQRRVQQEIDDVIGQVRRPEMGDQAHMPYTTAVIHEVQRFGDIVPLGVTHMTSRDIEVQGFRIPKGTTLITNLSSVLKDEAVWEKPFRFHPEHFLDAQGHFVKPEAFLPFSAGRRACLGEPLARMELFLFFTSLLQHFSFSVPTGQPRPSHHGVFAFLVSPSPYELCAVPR
CYP2C9, sequence (P11712 whole entry): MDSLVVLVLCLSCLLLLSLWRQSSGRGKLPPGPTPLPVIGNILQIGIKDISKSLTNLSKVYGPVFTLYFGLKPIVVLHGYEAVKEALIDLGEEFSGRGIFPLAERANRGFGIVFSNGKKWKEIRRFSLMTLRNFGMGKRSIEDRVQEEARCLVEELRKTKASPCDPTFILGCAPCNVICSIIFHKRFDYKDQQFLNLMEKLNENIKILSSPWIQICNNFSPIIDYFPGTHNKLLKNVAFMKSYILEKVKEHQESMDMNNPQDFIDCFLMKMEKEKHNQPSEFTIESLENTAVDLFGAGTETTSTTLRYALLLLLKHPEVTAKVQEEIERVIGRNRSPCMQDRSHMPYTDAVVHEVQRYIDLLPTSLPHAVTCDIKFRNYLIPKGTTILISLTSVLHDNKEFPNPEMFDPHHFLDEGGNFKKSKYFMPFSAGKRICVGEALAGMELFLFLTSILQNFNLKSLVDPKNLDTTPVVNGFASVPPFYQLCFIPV

| kinact/KI (cruzain) | Kd (TcCYP51) | IC50 (cruzain) | Structure (SMILES) | T. cruzi growth inhibition MTC [1, 11] | EC90 [2] | effect on sterol (lipid) composition of intracellular T. cruzi [3] | other results |
| --- | --- | --- | --- | --- | --- | --- | --- |
| – | – | – | O=C(Cn1ccnc1[N+](=O)[O-])NCc1ccccc1 [BNZ, benzindazole, reference compound] | 10 µM | 7200 nM | – | – |
| 118000 M⁻¹ s⁻¹ | > 2000 nM | – | CN1CCN(C(=O)N[C@@H](Cc2ccccc2)C(=O)N[C@H](/C=C/S(=O)(=O)c2ccccc2)CCc2ccccc2)CC1 [Compound 1, reference compound] | 8 µM | 100 nM | little effect on sterol composition | TcCYP51 cellular activity (Y/N) ([3]; affects ergosterol biosynthesis at 1.6 μM): N (1.6 μM); IC50 (CYP1A2): 24000 nM; IC50 (CYP2D6): 26000 nM; IC50 (CYP3A4 [4]): 1700 nM; competition for labeling of the ≈35 kDa band by probe 9 [5, 12]: successfully blocked labeling; IC50 (CYP2C19 [6]): 7600 nM; mechanism of CYP3A4 inhibition (CYP3A4 [7]): irreversible inhibition; IC50 (CYP3A4 [7]; pre-incubation with NADPH): 5.9 nM; IC50 (CYP3A4 [7]; pre-incubation without NADPH): 1080 nM; IC50 (CYP2C9): 32000 nM; type of CYP3A4 inhibition (CYP3A4 [8]): mechanism-based (irreversible) inhibitor of CYP3A4; mechanism of CYP2C19 inhibition (CYP2C19 [9]): reversible inhibitors; IC50 (CYP2C19 [9]; pre-incubation with NADPH): 5540 nM; IC50 (CYP2C19 [9]; pre-incubation without NADPH): 8220 nM; P-glycoprotein (P-gp) substrate (P-glycoprotein (P-gp)): substrate of the drug transporter P-glycoprotein (P-gp) |
| 120000 M⁻¹ s⁻¹ | – | – | O=C(N[C@@H](Cc1ccccc1)C(=O)N[C@H](/C=C/S(=O)(=O)c1ccccc1)CCc1ccccc1)c1ccccn1 [Compound 2] | 10 µM | – | – | – |
| 16000 M⁻¹ s⁻¹ | > 2000 nM | – | Cc1ccc(C[C@H](NC(=O)c2ccccn2)C(=O)N[C@H](/C=C/S(=O)(=O)c2ccccc2)CCc2ccccc2)cc1.O=C(O)C(F)(F)F [Compound 3] | 8 µM | 1850 nM | no significant change in lipid composition | TcCYP51 cellular activity (Y/N) [3, 13]: N (2.0 μM); competition for labeling of the ≈35 kDa band by probe 9 [5, 12]: successfully blocked labeling |
| 67300 M⁻¹ s⁻¹ | ≤ 5 nM | – | Cc1ccc(C[C@H](NC(=O)c2ccncc2)C(=O)N[C@H](/C=C/S(=O)(=O)c2ccccc2)CCc2ccccc2)cc1 [Compound 4, N-[(2S)-1-[[(E,3S)-1-(benzenesulfonyl)-5-phenylpent-1-en-3-yl]amino]-3-(4-methylphenyl)-1-oxopropan-2-yl]pyridine-4-carboxamide] | 0.6 µM | 100 nM | effects very similar to those observed in posaconazole treated parasites | TcCYP51 cellular activity (Y/N) ([3]; affects ergosterol biosynthesis at 0.2 μM): Y (0.2 μM); IC50 (CYP1A2): 22000 nM; IC50 (CYP2D6): 2700 nM; IC50 (CYP3A4 [4]): 800 nM; fold more potent than 1 in the MTC assay ([1]; relative to compound 1): about 10 fold; competition for labeling of the ≈35 kDa band by probe 9 [5, 12]: successfully blocked labeling; IC50 (CYP2C19 [6]): 3400 nM; IC50 [10]: ~7000 nM; mechanism of CYP3A4 inhibition (CYP3A4 [7]): reversible inhibition; IC50 (CYP3A4 [7]; pre-incubation with NADPH): 117 nM; IC50 (CYP3A4 [7]; pre-incubation without NADPH): 46 nM; IC50 (CYP2C9): 5500 nM; mechanism of CYP2C19 inhibition (CYP2C19 [9]): reversible inhibitors; IC50 (CYP2C19 [9]; pre-incubation with NADPH): 300 nM; IC50 (CYP2C19 [9]; pre-incubation without NADPH): 170 nM |
| – | – | – | CC1CCC(C(=O)N[C@H](Cc2c[nH]c3ccccc23)C(=O)Nc2ccncc2)CC1 (stereo partly drawn) [Compound 5, reference compound] | ≤10^d μM | – | – | TcCYP51 cellular activity (Y/N) ([3]; affects ergosterol biosynthesis at 5.0 μM): Y (5.0 μM) |
| – | > 2000 nM | > 50000 nM | CN1CCN(C(=O)N[C@@H](Cc2ccccc2)C(=O)N[C@@H](CCc2ccccc2)CCS(=O)(=O)c2ccccc2)CC1 [Compound 6] | >10 µM | > 10000 nM | no significant change in lipid composition | TcCYP51 cellular activity (Y/N) [3, 13]: N (2.0 μM); competition for labeling of the ≈35 kDa band by probe 9 [5, 14]: did not compete for labeling by 9 |
| – | > 2000 nM | > 50000 nM | Cc1ccc(C[C@H](NC(=O)c2ccccn2)C(=O)N[C@@H](CCc2ccccc2)CCS(=O)(=O)c2ccccc2)cc1 [Compound 7] | >10 µM | > 10000 nM | no significant change in lipid composition | TcCYP51 cellular activity (Y/N) [3, 15]: N (0.1 μM) |
| – | ≤ 5 nM | > 50000 nM | Cc1ccc(C[C@H](NC(=O)c2ccncc2)C(=O)N[C@@H](CCc2ccccc2)CCS(=O)(=O)c2ccccc2)cc1 [Compound 8] | 0.25 µM | 110 nM | effects very similar to those observed in posaconazole treated parasites | TcCYP51 cellular activity (Y/N) [3, 15]: Y (0.1 μM); times more potent than 4 in the MTC assay ([1]; relative to compound 4): 2–4 times; competition for labeling of the ≈35 kDa band by probe 9 [5, 14]: did not compete for labeling by 9 |
| 81500 M⁻¹ s⁻¹ | – | – | C#CCN1CCN(C(=O)N[C@@H](Cc2ccccc2)C(=O)N[C@H](/C=C/S(=O)(=O)c2ccccc2)CCc2ccccc2)CC1 [Compound 9] | – | 17 nM | – | T. cruzi growth inhibition MTC ([1]; performed in BESM host cell rather than J774 cells): 5^e μM |
| – | 620 ± 260 nM | > 50000 nM | CNC(=O)[C@H](Cc1ccc(C)cc1)NC(=O)c1ccncc1 [Compound 12] | >10 µM | > 10000 nM | – | antitrypanosomal effect ([1]; highest concentration examined (10 μM)): no antitrypanosomal effect |
| – | 75 ± 26 nM | > 50000 nM | Cc1ccc(C[C@H](NC(=O)c2ccncc2)C(=O)N[C@H](C)c2ccccc2)cc1 [Compound 13] | – | 3900 nM | – | T. cruzi growth inhibition MTC ([1]; read at day 12 following 7 days treatment): 1^f μM |
| – | – | – | CC[C@@H]([C@H](C)O)n1ncn(-c2ccc(N3CCN(c4ccc(OC[C@@H]5CO[C@@](Cn6cncn6)(c6ccc(F)cc6F)C5)cc4)CC3)cc2)c1=O [POSA, posaconazole, reference compound] | 0.003 µM | 2700 nM | increase in the relative abundance of TcCYP51 substrates lanosterol (f) and eburicol (h) | TcCYP51 cellular activity (Y/N) [3, 15]: Y (0.1 μM) |
